Assay results: US9512117B2 (priority 2010, dated 2016)
Values joined by “and” are separate entries in the source; they are usually repeats but may differ in a detail not shown here. Equal entries are not always repeated.

Key:
[1] = logP by HPLC on reversed-phase columns (C 18), EEC directive 79/831 Annex V.A8; type: physicochemical; settings: LC-MS; for Log P [a]: acidic range, pH 2.7, 0.1% aqueous formic acid and acetonitrile; for Log P [b]: neutral range, pH 7.8, 0.001 molar aqueous ammonium hydrogencarbonate and acetonitrile
Procedure: The logP values were measured according to EEC directive 79/831 Annex V.A8 by HPLC (High Performance Liquid Chromatography) on reversed-phase columns (C 18), using the methods below:
^[a] The LC-MS determination in the acidic range is effected at pH 2.7 with 0.1% aqueous formic acid and acetonitrile (contains 0.1% formic acid) as eluents; linear gradient from 10% acetonitrile to 95% acetonitrile.
^[b] The LC-MS determination in the neutral range is effected at pH 7.8 using 0.001 molar aqueous ammonium hydrogencarbonate solution and acetonitrile as eluents; linear gradient from 10% acetonitrile to 95% acetonitrile.
The calibration is effected with unbranched alkan-2-ones (having 3 to 16 carbon atoms) with known logP values (logP values determined on the basis of the retention times by linear interpolation between two successive alkanones).

Phytophthora infestans = type: in vivo; settings: young tomato plants, protective spray, 100 ppm active ingredient, evaluation 7 days after inoculation; 0% = control, 100% = no infection
Plasmopara viticola = experiment: Plasmopara test (grapevine) / protective; type: in vivo; settings: young grapevine plants, protective spray, 10 ppm active ingredient, evaluation 6 days after inoculation; 0% = control, 100% = no infection
Procedure: Plasmopara Test (Grapevine)/Protective
• Solvent: 24.5 parts by weight of acetone • 24.5 parts by weight of dimethylacetamide • Emulsifier: 1 part by weight of alkylaryl polyglycol ether
To produce a suitable active ingredient formulation, 1 part by weight of active ingredient is mixed with the stated amounts of solvent and emulsifier, and the concentrate is diluted with water to the desired concentration.
To test for protective efficacy, young plants are sprayed with the active ingredient formulation at the stated application rate. After the spray coating has dried on, the plants are inoculated with an aqueous spore suspension of Plasmopara viticola and then remain in an incubation cabin at approx. 20° C. and 100% relative air humidity for 1 day. Subsequently, the plants are placed in a greenhouse at approx. 21° C. and approx. 90% air humidity for 4 days. The plants are then moistened and placed in an incubation cabin for 1 day.
Evaluation follows 6 days after the inoculation. 0% means an efficacy which corresponds to that of the control, whereas an efficacy of 100% means that no infection is observed.
In this test, the following inventive compounds show, at an active ingredient concentration of 10 ppm, an efficacy of 70% or more: […]

Row | Structure (SMILES) | Log P [a] [1] | Eff. % (Phytophthora infestans) | Eff. % (Plasmopara viticola) [%] | Log P [b] [1]
1 | Cc1cc(C(F)(F)F)nn1CC(=O)N1CCC(c2nc(C3=NOC(c4ccccc4C[S+](C)[O-])C3)cs2)CC1 (mixture of isomers) [Ex. 35] | 2.34[a] | 100% |  | 
2 | CC[S+]([O-])Cc1ccccc1C1CC(c2csc(C3CCN(C(=O)Cn4nc(C(F)(F)F)cc4C)CC3)n2)=NO1 (mixture of isomers) [Ex. 36] | 2.53[a] | 100% |  | 
3 | Cc1cc(C(F)(F)F)nn1CC(=O)N1CCC(c2nc(C3=NOC(c4ccccc4CS(C)(=O)=O)C3)cs2)CC1 (racemic) [Ex. 34] | 2.6[a] | 100% | 84 | 
4 | C#CCOc1cccc(F)c1C1(C)CC(c2csc(C3CCN(C(=O)Cn4nc(C)cc4C(F)F)CC3)n2)=NO1 (racemic) [Ex. 37] | 3.11[a]; | 94% | 96 | 3.12[b];
5 | C#CCOc1cccc(Cl)c1C1CC(c2csc(C3CCN(C(=O)Nc4cc(C)ccc4C)CC3)n2)=NO1 (racemic) [Ex. 38] | 3.68[a]; | 94% | 100 | 3.57[b]
6 | C=CCOc1cccc(Cl)c1C1CC(c2csc(C3CCN(C(=O)Nc4cc(Cl)ccc4C)CC3)n2)=NO1 (racemic) [Ex. 39] | 4.21[a]; | 94% | 100 | 4.11[b]
7 | Cc1cc(C(F)(F)F)nn1CC(=O)N1CCC(c2nc(C3=NOC(c4cccc(OC(=O)C5CC5)c4)C3)cs2)CC1 (racemic) [Ex. 40] | 3.53[a]; | 100% | 85 | 3.47[b]
8 | C=CCOc1cccc(C2CC(c3csc(C4CCN(C(=O)Cn5nc(C(F)(F)F)cc5C)CC4)n3)=NO2)c1 (racemic) [Ex. 41] | 3.62[a]; | 98% and 97% | 78 | 3.68[b];
9 | C=CCOc1cccc(Cl)c1C1CC(c2csc(C3CCN(C(=O)Nc4cc(C)ccc4C)CC3)n2)=NO1 (racemic) [Ex. 42] | 3.98[a]; | 94% | 96 | 3.91[b]
10 | Cc1cc(C(F)(F)F)nn1CC(=O)N1CCC(c2nc(C3=NOC(c4ccccc4COCC(F)(F)F)C3)cs2)CC1 (racemic) [Ex. 43] | 3.77[a] | 97% | 83 | 
11 | COCCOCc1ccccc1C1CC(c2csc(C3CCN(C(=O)Cn4nc(C(F)(F)F)cc4C)CC3)n2)=NO1 (racemic) [Ex. 44] | 3.28[a] | 94% |  | 
12 | C#CCOc1ccccc1C1CC(c2csc(C3CCN(C(=O)Nc4cc(C)ccc4C)CC3)n2)=NO1 (racemic) [Ex. 45] | 3.43[a]; | 100% | 96 | 3.41[b]
13 | C=CCOc1ccccc1C1CC(c2csc(C3CCN(C(=O)Nc4cc(C)ccc4C)CC3)n2)=NO1 (racemic) [Ex. 46] | 3.91[a]; | 100% | 98 | 3.81[b]
14 | Cc1cc(C(F)(F)F)nn1CC(=O)N1CCC(c2nc(C3=NOC(c4ccc(OC(=O)C5CC5)cc4)C3)cs2)CC1 (racemic) [Ex. 47] | 3.49[a]; | 100% | 86 | 3.4[b]
15 | Cc1cc(C(F)(F)F)nn1CC(=O)N1CCC(c2nc(C3=NOC(c4c(Cl)cccc4OC(=O)C4CC4)C3)cs2)CC1 (racemic) [Ex. 48] | 3.73[a]; | 70% | 95 | 3.64[b]
16 | COCCOc1cccc(F)c1C1CC(c2csc(C3CCN(C(=O)Cn4nc(C(F)(F)F)cc4C)CC3)n2)=NO1 (racemic) [Ex. 49] | 3.28[a]; | 90% | 100 | 3.17[b]
17 | C=CCOc1cccc(Cl)c1C1CC(c2csc(C3CCN(C(=O)Cn4nc(C(F)(F)F)cc4C)CC3)n2)=NO1 (racemic) [Ex. 50] | 3.94[a]; | 70% | 100 | 3.83[b]
18 | C=CCOc1cccc(F)c1C1CC(c2csc(C3CCN(C(=O)Cn4nc(C(F)(F)F)cc4C)CC3)n2)=NO1 (racemic) [Ex. 51] | 3.7[a]; | 85% | 100 | 3.61[b]
19 | C=CCOc1c(F)cccc1C1CC(c2csc(C3CCN(C(=O)Cn4nc(C(F)(F)F)cc4C)CC3)n2)=NO1 (racemic) [Ex. 52] | 3.97[a]; | 97% | 98 | 3.84[b]
20 | Cc1cc(C(F)(F)F)nn1CC(=O)N1CCC(c2nc(C3=NOC(c4c(F)cccc4C=O)C3)cs2)CC1 (racemic) [Ex. 53] | 3.03[a]; | 98% | 100 | 2.95[b]

Row | Structure (SMILES) | Log P [a] [1] | Eff. % (Phytophthora infestans) | Eff. % (Plasmopara viticola) [%] | Log P [b] [1]
21 | Cc1cc(C(F)(F)F)nn1CC(=O)N1CCC(c2nc(C3=NOC(c4cccc(F)c4OC(=O)C4CC4)C3)cs2)CC1 (racemic) [Ex. 54] | 3.62[a]; | 94% | 91 | 3.5[b]
22 | Cc1cc(C(F)(F)F)nn1CC(=O)N1CCC(c2nc(C3=NOC(c4ccccc4NS(C)(=O)=O)C3)cs2)CC1 (stereo not drawn) [Ex. 5, N-(2-{3-[2-(1-{[5-Methyl-3-(trifluoromethyl)-1H-pyrazol-1-yl]acetyl}piperidin-4-yl)-1,3-thiazol-4-yl]-4,5-dihydro-1,2-oxazol-5-yl}phenyl)methanesulphonamide] |  | 95% | 84 | 
23 | C#CCOc1ccc(F)c(C2CC(c3csc(C4CCN(C(=O)Cn5nc(C(F)(F)F)cc5C)CC4)n3)=NO2)c1F (stereo not drawn) [Ex. 8] |  | 100% | 100 | 
24 | C#CCOc1c(F)cccc1C1CC(c2csc(C3CCN(C(=O)Cn4nc(C(F)(F)F)cc4C)CC3)n2)=NO1 (stereo not drawn) [Ex. 9] |  | 94% | 100 | 
25 | C#CCOc1cccc(C2CC(c3csc(C4CCN(C(=O)Cn5nc(C(F)(F)F)cc5C)CC4)n3)=NO2)c1 (stereo not drawn) [Ex. 10] | 3.49[a]; |  |  | 3.3[b]
26 | O=C(Oc1ccccc1C1CC(c2csc(C3CCN(C(=O)Cn4nc(C(F)(F)F)cc4C(F)(F)F)CC3)n2)=NO1)C1CC1 (stereo not drawn) [Ex. 14] | 4.04[a] |  |  | 
27 | CC#CCOc1cc(OC)ccc1C1CC(c2csc(C3CCN(C(=O)Cn4nc(C(F)F)cc4C)CC3)n2)=NO1 (stereo not drawn) [Ex. 15] | 3.28[a] |  |  | 
28 | O=C(Cn1nc(C(F)(F)F)cc1C(F)(F)F)N1CCC(c2nc(C3=NOC(c4ccccc4OCC4CC4)C3)cs2)CC1 (stereo not drawn) [Ex. 16] | 4.59[a] |  | 96 | 
29 | Cc1cc(C(F)(F)F)nn1CC(=O)N1CCC(c2nc(C3=NOC(c4ccccc4OCC4CC4)C3)cs2)CC1 (stereo not drawn) [Ex. 17] | 4.03[a] |  | 92 | 
30 | C=CCOc1ccc(F)c(C2CC(c3csc(C4CCN(C(=O)Cn5nc(C(F)(F)F)cc5C)CC4)n3)=NO2)c1F (stereo not drawn) [Ex. 19] |  | 98% | 98 | 
31 | C#CCOc1cc(Cl)ccc1C1CC(c2csc(C3CCN(C(=O)Cn4nc(C(F)F)cc4C)CC3)n2)=NO1 (stereo not drawn) [Ex. 20] | 3.37[a]; |  |  | 3.36[b]
32 | C#CCOc1cc(Cl)cc(Cl)c1C1CC(c2csc(C3CCN(C(=O)Cn4nc(C(F)F)cc4C)CC3)n2)=NO1 (stereo not drawn) [Ex. 21] | 3.66[a]; |  |  | 3.57[b]
33 | C=CCOc1cc(C)ccc1C1CC(c2csc(C3CCN(C(=O)Cn4nc(C(F)F)cc4C)CC3)n2)=NO1 (stereo not drawn) [Ex. 22] | 3.62[a]; |  |  | 3.66[b];
34 | C#CCOc1cc(C)ccc1C1CC(c2csc(C3CCN(C(=O)Cn4nc(C(F)F)cc4C)CC3)n2)=NO1 (stereo not drawn) [Ex. 23] | 3.23[a]; |  |  | 3.23[b];
35 | C=CCOc1cc(Cl)cc(Cl)c1C1CC(c2csc(C3CCN(C(=O)Cn4nc(C(F)F)cc4C)CC3)n2)=NO1 (stereo not drawn) [Ex. 24] | 3.95[a]; |  |  | 3.97[b];
36 | C#CCOc1cc(C)ccc1C1CC(c2csc(C3CCN(C(=O)Cn4nc(C(F)(F)F)cc4C)CC3)n2)=NO1 (stereo not drawn) [Ex. 26] | 3.67[a]; | 100% |  | 3.61[b]
37 | COc1ccc(C2CC(c3csc(C4CCN(C(=O)Cn5nc(C(F)F)cc5C)CC4)n3)=NO2)c(OCC2CC2)c1 (stereo not drawn) [Ex. 27] | 3.5[a] |  |  | 
38 | Cc1cc(C(F)F)nn1CC(=O)N1CCC(c2nc(C3=NOC(c4c(F)cccc4OCC4CC4)C3)cs2)CC1 (stereo not drawn) [Ex. 28] | 3.44[a] |  |  | 
39 | C#CCOc1cccc(F)c1C1CC(c2csc(C3CCN(C(=O)Cn4nc(C(F)F)cc4C)CC3)n2)=NO1 (stereo not drawn) [Ex. 31] | 2.92[a] |  |  | 
